For one test, the target named is T1, TNAP (Homo sapiens, UniProt P05186).
T1 sequence (P05186 18-502 limits assumed): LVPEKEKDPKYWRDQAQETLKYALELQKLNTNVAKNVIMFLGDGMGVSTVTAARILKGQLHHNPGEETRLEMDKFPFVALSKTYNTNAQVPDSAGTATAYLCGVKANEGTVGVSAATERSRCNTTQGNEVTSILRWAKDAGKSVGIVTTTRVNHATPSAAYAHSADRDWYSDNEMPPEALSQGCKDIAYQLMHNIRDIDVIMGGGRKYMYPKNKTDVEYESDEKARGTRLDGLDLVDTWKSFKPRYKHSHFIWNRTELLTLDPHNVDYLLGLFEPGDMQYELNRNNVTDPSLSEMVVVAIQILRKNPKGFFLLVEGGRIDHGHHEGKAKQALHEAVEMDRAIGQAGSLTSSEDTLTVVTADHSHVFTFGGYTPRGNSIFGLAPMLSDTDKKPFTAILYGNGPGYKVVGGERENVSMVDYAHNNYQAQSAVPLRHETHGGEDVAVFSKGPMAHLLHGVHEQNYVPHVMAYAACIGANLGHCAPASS
Kind of test: TNAP inhibitory activity, colorimetric assay (alkaline phosphatase assay kit ab83369, pNPP substrate). In kind it is biochemical. The settings on record: TNAP enzyme, 2 hours at room temperature, absorbance 405 nm. The procedure: The TNAP inhibitory activity of the compounds according to the present invention was analyzed by colorimetric assay.
The experiments were performed according to the protocol of the alkaline phosphatase assay kit ab83369.
TNAP enzyme at a concentration of 0.2 ng/µl was dispensed into a 96-well plate (Costar) (10 µl/well), to which the 10-fold diluted test substance was added (15 µl/well). The plate was incubated at room temperature, shielded from light, for 10 minutes to allow the enzyme and compound to act. After incubation, 125 µl of 1 mM substrate (pNPP) was added to each well of the plate, and the plate was incubated for 2 hours at room temperature in a darkened state to allow the enzyme, substrate, and test compound to act. Absorbance was measured at 405 nm using a microplate reader (Tecan spark), and IC50 was calculated using GraphPad Prism 9. The amount of p-nitrophenol produced was calculated through the absorbance, and the degree of TNAP activity inhibition was evaluated through the degree of inhibition of p-nitrophenol production, and the concentration of the compound that inhibited 50% was calculated as the IC50 value.

Another test relates to saos-2 cells. Kind of test: Anticalcification efficacy in saos-2 cells (osteogenic medium, Alizarin Red staining). In kind it is cell-based. The settings on record: test compound 1 µM, 7 days osteogenic medium, Alizarin Red absorbance 540 nm; for inhibition at 1 µM: Homo sapiens, 168 h, read-out: calcification inhibition. As for the experimental part: To confirm the inhibitory effect of calcification in saos-2 cells in which calcification is induced by overexpression of TNAP, saos-2 cells were cultured in a culture medium in an incubator at 37°C, 95% humidity, and 5% CO2. RPMI-1640 (Corning) supplemented with 10% FBS (Gibco) and 1% Pen/Strep (Gibco) was used as the culture medium.
Saos-2 cells were seeded in a 48-well plate at the density of 1.5 x 10^4 cells/well and used in the experiment when they reached 80-90% confluence after stabilization for 2 days.
After saos-2 cells were cultured in a 48-well plate to 80-90% confluence, the culture medium was removed and replaced with an osteogenic medium (OM). DMEM (Gibco) containing 10% FBS, 1% Pen/Strep, 100 nM dexamethasone (Sigma), 10 mM β-glycerophosphate (Sigma), and 0.05 mM L-ascorbic acid (Sigma) was used as the OM. Osteogenic differentiation of saos-2 cells by OM was induced for 7 days, and OM was replaced every 2 to 3 days.
When inducing calcification through OM in saos-2 cells, the cells were treated with concentrations of […] of the TNAP inhibitor test compounds with the OM replacement cycle, except for the control group (OM).
After 7 days of OM induction, the medium was removed from each well and the plate was washed twice with PBS. Cells were fixed with 4% paraformaldehyde for 1 hour, then the fixative was removed and washed twice with deionized water (DW). ARS solution was added to the plate and shaken for 1 hour to stain the cells. When the cells were sufficiently stained red, the dye was removed, the cells were washed carefully with DW, dried, and then photographs were taken of the stained cells. The red-stained area represents calcification induced by OM, and the degree of calcification was determined based on the degree of redness. To quantify this, 10% cetylpyridinium chloride was dispensed into the wells and the dye was dissolved. The dye-dissolved solution was transferred to each well of a 96 well plate and absorbance was measured at 540 nm.
The degree of decrease in the measured absorbance by the test compounds based on the absorbance for OM was evaluated as the degree of inhibition of calcification.

pIC50: −log10 of the molar value. Counter-ions that a name gives are not always drawn. Bounds are passed on as bounds.

In general, pIC50 refers to −log10 of the IC50, conventionally taken in molar units. The low end stands for a high IC50, the high end for a low IC50. In general, inhibition refers to the share of the control response that was lost under treatment. `CCn1cc(-c2ccc(OC)c(S(=O)(=O)Nc3cnc4c(c3)C(=O)NCC4)c2)c(C(F)(F)F)n1` [Example 82, 5-(1-ethyl-3-(trifluoromethyl)-1H-pyrazole-4-yl)-2-methoxy-N-(5-oxo-5,6,7,8-tetrahydro-1,6-naphthyridine-3-yl)benzenesulfonamide] had a pIC50 at TNAP not below 8.00. For the same molecule, in the test on saos-2 cells, the inhibition at 1 µM is not below 50%.

`COC(=O)Cc1ccc(-c2ccc(OC)c(S(=O)(=O)Nc3cnc4c(c3)C(=O)NC4)c2)cc1` [Example 27, methyl 2-(4'-methoxy-3'-(N-(5-oxo-6,7-dihydro-5H-pyrrolo[3,4-b]pyridine-3-yl)sulfamoyl)-[1,1'-biphenyl]-4-yl)acetate]: the pIC50 at TNAP was 6.00 to 7.00. Besides, the inhibition at 1 µM in the test on saos-2 cells was not below 50%.

For `COc1ccc(-c2cnn(C3CC3)c2)cc1S(=O)(=O)Nc1cnc2c(c1)C(=O)NCC2` [Example 74, 5-(1-cyclopropyl-1H-pyrazole-4-yl)-2-methoxy-N-(5-oxo-5,6,7,8-tetrahydro-1,6-naphthyridine-3-yl)benzenesulfonamide], the pIC50 against TNAP was 6.00 to 7.00. Moreover, in the test with saos-2 cells, the inhibition at 1 µM was not below 50%.

`CCOC(=O)C(C)(C)n1cc(-c2ccc(OC)c(S(=O)(=O)Nc3cnc4c(c3)C(=O)NCC4)c2)cn1` [Example 59, ethyl 2-(4-(4-methoxy-3-(N-(5-oxo-5,6,7,8-tetrahydro-1,6-naphthyridine-3-yl)sulfamoyl)phenyl)-1H-pyrazole-1-yl)-2-methylpropanoate] had a pIC50 against TNAP of 6.00 to 7.00. Moreover, the inhibition at 1 µM in the test on saos-2 cells is not below 50%.

At TNAP, `COc1ccc(OC)c(S(=O)(=O)Nc2cnc3c(c2)C(=O)NCC3)c1` [Example 7, 2,5-dimethoxy-N-(5-oxo-5,6,7,8-tetrahydro-1,6-naphthyridine-3-yl)benzenesulfonamide] gave a pIC50 not below 8.00. In the test with saos-2 cells, the inhibition at 1 µM is not below 50%.

In the case of “4'-(aminomethyl)-4-fluoro-N-(5-oxo-5,6,7,8-tetrahydro-1,6-naphthyridine-3-yl)-[1,1'-biphenyl]-2-sulfonamide hydrochloride [Example 39]”, the pIC50 against TNAP is 7.00 to 8.00. In the test with saos-2 cells, the calcification inhibition entry was “A (inhibition of 50% or more was expressed as "A")”.

In the case of `COc1ccc(C2=CCN(C(C)=O)CC2)cc1S(=O)(=O)Nc1cnc2c(c1)C(=O)NCC2` [Example 61, 5-(1-acetyl-1,2,3,6-tetrahydropyridine-4-yl)-2-methoxy-N-(5-oxo-5,6,7,8-tetrahydro-1,6-naphthyridine-3-yl)benzenesulfonamide], the pIC50 at TNAP was 6.00 to 7.00. Further, the inhibition at 1 µM with saos-2 cells is not below 50%.

For the molecule `COc1ccc(Cl)cc1S(=O)(=O)Nc1cnc2c(c1)CN(C(=O)N1CCOCC1)CC2` [Example 109, 5-chloro-2-methoxy-N-(6-(morpholine-4-carbonyl)-5,6,7,8-tetrahydro-1,6-naphthyridine-3-yl)benzenesulfonamide], the pIC50 on TNAP was 7.00 to 8.00. For the same molecule, the inhibition at 1 µM in the test on saos-2 cells is not below 50%.

With `CCOC(=O)N1CCc2ncc(NS(=O)(=O)c3cc(Br)ccc3OC)cc2C1` [Example 97, ethyl3-((5-bromo-2-methoxyphenyl)sulfonamido)-7,8-dihydro-1,6-naphthyridine-6(5H)-carboxylate], the pIC50 against TNAP was 6.00 to 7.00. In addition, the inhibition at 1 µM with saos-2 cells was not below 50%.

Molecule `COc1ccc(OC)c(S(=O)(=O)Nc2cnc3c(c2)CNCC3)c1` [Example 94, 2,5-dimethoxy-N-(5,6,7,8-tetrahydro-1,6-naphthyridine-3-yl)benzenesulfonamide hydrochloride] gave a pIC50 on TNAP of 7.00 to 8.00. For the same molecule, the inhibition at 1 µM in the test on saos-2 cells was not below 50%.

Consider `COc1ccc(-c2cnc(N)nc2)cc1S(=O)(=O)Nc1cnc2c(c1)C(=O)NCC2` [Example 44, 5-(2-aminopyrimidine-5-yl)-2-methoxy-N-(5-oxo-5,6,7,8-tetrahydro-1,6-naphthyridine-3-yl)benzenesulfonamide], for which the pIC50 against TNAP is 6.00 to 7.00. Besides, the inhibition at 1 µM in the test with saos-2 cells is not below 50%.

`COc1ccc(-c2cnc(N)nc2C(F)(F)F)cc1S(=O)(=O)Nc1cnc2c(c1)C(=O)NCC2` [Example 78, 5-(2-amino-4-(trifluoromethyl)pyrimidine-5-yl)-2-methoxy-N-(5-oxo-5,6,7,8-tetrahydro-1,6-naphthyridine-3-yl)benzenesulfonamide] gave a pIC50 against TNAP not above 6.00. Besides, the inhibition at 1 µM in the test with saos-2 cells was less than 0%.

For `COc1ccc(-c2cnn(C(C)(C)C)c2)cc1S(=O)(=O)Nc1cnc2c(c1)C(=O)NCC2` [Example 122, 5-(1-(tert-butyl)-1H-pyrazole-4-yl)-2-methoxy-N-(5-oxo-5,6,7,8-tetrahydro-1,6-naphthyridine-3-yl)benzenesulfonamide], the pIC50 on TNAP is 7.00 to 8.00. For the same molecule, in the test on saos-2 cells, the inhibition at 1 µM was less than 0%.

Turning to `COc1ccc(Br)cc1S(=O)(=O)Nc1cnc2c(c1)CNCC2` [Example 93, 5-bromo-2-methoxy-N-(5,6,7,8-tetrahydro-1,6-naphthyridine-3-yl)benzenesulfonamide hydrochloride], on TNAP, the pIC50 was 7.00 to 8.00. Also, in the test on saos-2 cells, the inhibition at 1 µM was not below 50%.

The molecule `COc1ccc(-c2cn(C(C)C)nc2C(F)(F)F)cc1S(=O)(=O)Nc1cnc2c(c1)C(=O)NCC2` [Example 81, 5-(1-isopropyl-3-(trifluoromethyl)-1H-pyrazole-4-yl)-2-methoxy-N-(5-oxo-5,6,7,8-tetrahydro-1,6-naphthyridine-3-yl)benzenesulfonamide] had a pIC50 against TNAP of 7.00 to 8.00. For the same molecule, the inhibition at 1 µM with saos-2 cells was not below 50%.

`COc1ccc(Br)cc1S(=O)(=O)Nc1cnc2c(c1)C(=O)NCC2` [Example 9, 5-bromo-2-methoxy-N-(5-oxo-5,6,7,8-tetrahydro-1,6-naphthyridine-3-yl)benzenesulfonamide] gave a pIC50 against TNAP not below 8.00. The inhibition at 1 µM with saos-2 cells was not below 50%.

With `COc1ccc(Br)cc1S(=O)(=O)Nc1cnc2c(c1)C(=O)N(C)CC2` [Example 87, 5-bromo-2-methoxy-N-(6-methyl-5-oxo-5,6,7,8-tetrahydro-1,6-naphthyridine-3-yl)benzenesulfonamide], at TNAP, the pIC50 was 6.00 to 7.00. Also, the inhibition at 1 µM in the test on saos-2 cells is less than 0%.

`COc1ccc(F)cc1S(=O)(=O)Nc1cnc2c(c1)CNCC2` [Example 90, 5-fluoro-2-methoxy-N-(5,6,7,8-tetrahydro-1,6-naphthyridine-3-yl)benzenesulfonamide hydrochloride] had a pIC50 against TNAP of 6.00 to 7.00. Moreover, in the test on saos-2 cells, the inhibition at 1 µM was 0 to 50%.

`CNC(=O)N1CCc2ncc(NS(=O)(=O)c3cc(Br)ccc3OC)cc2C1` [Example 111, 3-((5-bromo-2-methoxyphenyl)sulfonamido)-N-methyl-7,8-dihydro-1,6-naphthyridine-6(5H)-carboxamide] had a pIC50 at TNAP of 7.00 to 8.00. Further, the inhibition at 1 µM with saos-2 cells is not below 50%.

As for `COc1ccc(Br)cc1S(=O)(=O)Nc1cnc2c(c1)CN(C(=O)OCC(C)(C)C)CC2` [Example 99, neopentyl3-((5-bromo-2-methoxyphenyl)sulfonamido)-7,8-dihydro-1,6-naphthyridine-6(5H)-carboxylate], on TNAP, the pIC50 is 6.00 to 7.00. Besides, in the test on saos-2 cells, the inhibition at 1 µM was less than 0%.

“2-methoxy-N-(5-oxo-5,6,7,8-tetrahydro-1,6-naphthyridine-3-yl)benzenesulfonamide [Example 26]” showed a pIC50 at TNAP of 7.00 to 8.00. The calcification inhibition result with saos-2 cells is “A (inhibition of 50% or more was expressed as "A")”.

(Values after patent publication EP4806894A1, “TNAP INHIBITORY COMPOUND AND USE THEREOF” (Rednvia Co., Ltd., priority 2023, dated 2025).)
